From patent US20250144223A1, “PROTEIN DEGRADATION COMPOUND BASED ON NAMPT TARGET PROTEIN AND APPLICATION THEREOF” (GLUETACS THERAPEUTICS (SHANGHAI) CO., LTD., priority 2021, published 2025)
pIC50: −log10 of the molar value.

System: Jurkat
Assay: CellTiter-Glo Luminescent Cell Viability Assay, half inhibitory concentration (IC50) on tumor cell proliferation
Format: cell-based
Settings: Homo sapiens, Jurkat cells, 72 h treatment
Procedure: The tumor cells used herein were cultured in a cell culture medium at 37° C. in an incubator with 5% CO2, where the cell culture medium was supplemented with 10% FBS, as well as penicillin at a final concentration of 100 U/mL and streptomycin at a final concentration of 100 μg/mL. Prior to experimentation, all cells used were identified as correct cells by STR cells, and were negative for mycoplasma through routine testing.
IC50 values of the compounds of the present disclosure (including the compounds in Table 1 and compounds of examples) were measured using the CellTiter-Glo® Luminescent Cell Viability Assay kit from Promega Corporation. Assay details are as follows: Cells were seeded in 100 μL RPMI1640 medium containing serum at a density of 20,000 cells/well. After 24 h, the inoculated cells were treated with the compounds of the present disclosure which were serially diluted. After the cells were treated with the compounds of the present disclosure for 72 h, the CellTiter-Glo® reagent was added to the culture medium for cell viability assessment according to the instructions provided with the kit. DMSO served as the negative control, and FK866 inhibitor was used as the positive control, both treated with the same protocol as the compounds of the present disclosure. The growth inhibition of the compounds of the present disclosure on cells was plotted by Prism Graphpad software, and the IC50 values of the compounds of the present disclosure were calculated therefrom.

SMILES | pIC50
O=C(/C=C/c1cccnc1)NCCCCC1CCN(C(=O)c2ccc(N3CCNCC3)cc2)CC1 [SIAIS630006, (E)-N-(4-(1-(4-(piperazin-1-yl)benzoyl)piperidin-4-yl)butyl)-3-(pyridin-3-yl)acrylamide] | 8.52
Cc1ncsc1-c1ccc(CNC(=O)[C@@H]2C[C@@H](O)CN2C(=O)[C@@H](NC(=O)CCCCC(=O)N2CCN(c3ccc(C(=O)N4CCC(CCCCNC(=O)/C=C/c5cccnc5)CC4)cc3)CC2)C(C)(C)C)cc1 [SIAIS630007, (2S,4R)-1-((S)-3,3-dimethyl-2-(6-oxo-6-(4-(4-(4-(4-((E)-3-(pyridin-3-yl)acrylamido)butyl)piperidine-1-carbonyl)phenyl)piperazin-1-yl)hexanamido)butanoyl)-4-hydroxy-N-(4-(4-methylthiazol-5-yl)benzyl)pyrrolidine-2-carboxamide] | 6.96
Cc1ncsc1-c1ccc(CNC(=O)[C@@H]2C[C@@H](O)CN2C(=O)[C@@H](NC(=O)CCCCCCCCCCCCCCC(=O)N2CCN(c3ccc(C(=O)N4CCC(CCCCNC(=O)/C=C/c5cccnc5)CC4)cc3)CC2)C(C)(C)C)cc1 [SIAIS630008, (2S,4R)-1-((S)-3,3-dimethyl-2-(16-oxo-16-(4-(4-(4-(4-((E)-3-(pyridin-3-yl)acrylamido)butyl)piperidine-1-carbonyl)phenyl)piperazin-1-yl)hexadecanamido)butanoyl)-4-hydroxy-N-(4-(4-methylthiazol-5-yl)benzyl)pyrrolidine-2-carboxamide] | 7.02
O=C(/C=C/c1cccnc1)NCCCCC1CCN(C(=O)c2ccc(N3CCN(C(=O)CCNc4cccc5c4C(=O)N(C4CCC(=O)NC4=O)C5=O)CC3)cc2)CC1 (stereo not shown) [SIAIS630009, (E)-N-(4-(1-(4-(4-(3-((2-(2,6-dioxopiperidin-3-yl)-1,3-dioxoisoindolin-4-yl)amino)propanoyl)piperazin-1-yl)benzoyl)piperidin-4-yl)butyl)-3-(pyridin-3-yl)acrylamide] | 8.64
O=C(/C=C/c1cccnc1)NCCCCC1CCN(C(=O)c2ccc(N3CCN(C(=O)CCCNc4cccc5c4C(=O)N(C4CCC(=O)NC4=O)C5=O)CC3)cc2)CC1 (stereo not shown) [SIAIS630010, (E)-N-(4-(1-(4-(4-(4-((2-(2,6-dioxopiperidin-3-yl)-1,3-dioxoisoindolin-4-yl)amino)butanoyl)piperazin-1-yl)benzoyl)piperidin-4-yl)butyl)-3-(pyridin-3-yl)acrylamide] | 9.46
O=C(/C=C/c1cccnc1)NCCCCC1CCN(C(=O)c2ccc(N3CCN(C(=O)CCCCNc4cccc5c4C(=O)N(C4CCC(=O)NC4=O)C5=O)CC3)cc2)CC1 (stereo not shown) [SIAIS630011, (E)-N-(4-(1-(4-(4-(5-((2-(2,6-dioxopiperidin-3-yl)-1,3-dioxoisoindolin-4-yl)amino)pentanoyl)piperazin-1-yl)benzoyl)piperidin-4-yl)butyl)-3-(pyridin-3-yl)acrylamide] | 8.55
O=C(/C=C/c1cccnc1)NCCCCC1CCN(C(=O)c2ccc(N3CCN(C(=O)CCCCCCNc4cccc5c4C(=O)N(C4CCC(=O)NC4=O)C5=O)CC3)cc2)CC1 (stereo not shown) [SIAIS630012, (E)-N-(4-(1-(4-(4-(7-((2-(2,6-dioxopiperidin-3-yl)-1,3-dioxoisoindolin-4-yl)amino)heptanoyl)piperazin-1-yl)benzoyl)piperidin-4-yl)butyl)-3-(pyridin-3-yl)acrylamide] | 8.55
O=C(/C=C/c1cccnc1)NCCCCC1CCN(C(=O)c2ccc(N3CCN(C(=O)CSc4cccc5c4CN(C4CCC(=O)NC4=O)C5=O)CC3)cc2)CC1 (stereo not shown) [SIAIS630013, (E)-N-(4-(1-(4-(4-(2-((2-(2,6-dioxopiperidin-3-yl)-1-oxoisoindolin-4-yl)thio)acetyl)piperazin-1-yl)benzoyl)piperidin-4-yl)butyl)-3-(pyridin-3-yl)acrylamide] | 6.72
O=C(/C=C/c1cccnc1)NCCCCC1CCN(C(=O)c2ccc(N3CCN(C(=O)CCCCSc4cccc5c4CN(C4CCC(=O)NC4=O)C5=O)CC3)cc2)CC1 (stereo not shown) [SIAIS630014, (E)-N-(4-(1-(4-(4-(5-((2-(2,6-dioxopiperidin-3-yl)-1-oxoisoindolin-4-yl)thio)pentanoyl)piperazin-1-yl)benzoyl)piperidin-4-yl)butyl)-3-(pyridin-3-yl)acrylamide] | 8.70
O=C(/C=C/c1cccnc1)NCCCCN1CCN(C(=O)c2ccc(N3CCNCC3)cc2)CC1 [SIAIS630020, (E)-N-(4-(4-(4-(piperazin-1-yl)benzoyl)piperazin-1-yl)butyl)-3-(pyridin-3-yl)acrylamide] | 6.07
O=C(/C=C/c1cccnc1)NCCCCC1CCN(C(=O)c2ccc(N3CCN(C(=O)CCCCCSc4cccc5c4CN(C4CCC(=O)NC4=O)C5=O)CC3)cc2)CC1 (stereo not shown) [SIAIS630037, (E)-N-(4-(1-(4-(4-(6-((2-(2,6-dioxopiperidin-3-yl)-1-oxoisoindolin-4-yl)thio)hexanoyl)piperazin-1-yl)benzoyl)piperidin-4-yl)butyl)-3-(pyridin-3-yl)acrylamide] | 8.94
O=C(/C=C/c1cccnc1)NCCCCC1CCN(C(=O)c2ccc(N3CCN(C(=O)COCCSc4cccc5c4CN(C4CCC(=O)NC4=O)C5=O)CC3)cc2)CC1 (stereo not shown) [SIAIS630038, (E)-N-(4-(1-(4-(4-(2-(2-((2-(2,6-dioxopiperidin-3-yl)-1-oxoisoindolin-4-yl)thio)ethoxy)acetyl)piperazin-1-yl)benzoyl)piperidin-4-yl)butyl)-3-(pyridin-3-yl)acrylamide] | 7.61
O=C(/C=C/c1cccnc1)NCCCCC1CCN(C(=O)c2ccc(N3CCN(C(=O)COCCOCCSc4cccc5c4CN(C4CCC(=O)NC4=O)C5=O)CC3)cc2)CC1 (stereo not shown) [SIAIS630039, (E)-N-(4-(1-(4-(4-(2-(2-(2-((2-(2,6-dioxopiperidin-3-yl)-1-oxoisoindolin-4-yl)thio)ethoxy)ethoxy)acetyl)piperazin-1-yl)benzoyl)piperidin-4-yl)butyl)-3-(pyridin-3-yl)acrylamide] | 8.10
O=C(/C=C/c1cccnc1)NCCCCC1CCN(C(=O)c2ccc(N3CCN(CCCCC#Cc4cccc5c4CN(C4CCC(=O)NC4=O)C5=O)CC3)cc2)CC1 (stereo not shown) [SIAIS630119, (E)-N-(4-(1-(4-(4-(6-(2-(2,6-dioxopiperidin-3-yl)-1-oxoisoindolin-4-yl)hex-5-yn-1-yl)piperazin-1-yl)benzoyl)piperidin-4-yl)butyl)-3-(pyridin-3-yl)acrylamide] | 8.52
O=C(/C=C/c1cccnc1)NCCCCC1CCN(C(=O)c2ccc(N3CCN(CCCCCCCC#Cc4cccc5c4CN(C4CCC(=O)NC4=O)C5=O)CC3)cc2)CC1 (stereo not shown) [SIAIS630122, (E)-N-(4-(1-(4-(4-(9-(2-(2,6-dioxopiperidin-3-yl)-1-oxoisoindolin-4-yl)non-8-yn-1-yl)piperazin-1-yl)benzoyl)piperidin-4-yl)butyl)-3-(pyridin-3-yl)acrylamide] | 7.55
O=C(/C=C/c1cccnc1)NCCCCC1CCN(C(=O)c2ccc(N3CCN(CCCCSc4cccc5c4CN(C4CCC(=O)NC4=O)C5=O)CC3)cc2)CC1 (stereo not shown) [SIAIS630123, (E)-N-(4-(1-(4-(4-(4-((2-(2,6-dioxopiperidin-3-yl)-1-oxoisoindolin-4-yl)thio)butyl)piperazin-1-yl)benzoyl)piperidin-4-yl)butyl)-3-(pyridin-3-yl)acrylamide] | 8.60
